The values that follow are results of earlier work, collected in US10912302B2, “Glyphosate salt herbicidal composition” (Monsanto Technology LLC, priority 2004, dated 2021).

The conditions of the series: 25° C.

Each structure is given as a SMILES string.

On to `O=C(O)CNCP(=O)(O)O` [Glyphosate, glyphosate], for which the solubility in water is given as 1.16 % by weight.
